Results: US9884012B2, “Use of PEDF-derived polypeptides for promoting muscle or tendon regeneration or arteriogenesis” (MacKay Memorial Hospital, priority 2012, dated 2018)

Assays:
[1] = system: soleus muscle; assay: bupivacaine myonecrosis model, centrally nucleated muscle fibers; format: in vivo, Sprague-Dawley rats; conditions: for centrally nucleated fibers in regenerating muscle: 14 days after the bupivacaine injection, in words; for Centrally nucleated fibers (%): day 7 after the bupivacaine injection, soleus muscle, sustained-release formulation (Bolus: bolus 29-mer)
Protocol: To ascertain the number of centrally nucleated muscle fibers, sections were stained with H&E and then photographed as described above. At least 100 stained fibers were randomly chosen from each photo. Muscle fibers were judged centrally nucleated if one or more nuclei were not located at the periphery of the fiber. The data were expressed as a % of the total number of muscle fibers counted. Results were evaluated from 6 sections per muscle section, and 10 mice at each group.
(§1) To investigate the effects of the present PEDF peptides on muscle regeneration, a rat myonecrosis model of a single injection of bupivacaine into the soleus muscle was employed. Adult 10-week-old male Sprague-Dawley rats (initial body weight=312±11 g) were anesthetized by an intraperitoneal injection of a xylazine (10 mg/kg). Then, the soleus muscle was injured by unilaterally injecting 0.5 ml bupivacaine (AstraZeneca) with a disposable syringe with a 26-gauge needle. Briefly, the needle was inserted into the distal portion of the soleus muscle and then receded longitudinally to the proximal portion accompanying evenly bupivacaine solution injection. The solution was then injected throughout the entire length of the muscle as the needle was slowly withdrawn.
(§2) After bupivacaine injection, rats were divided equally (n=10/group) into four experimental groups and treated as follows. In the blank control group, the mice were treated with 50 μl of blank alginate gel. In the treatments groups, the mice received 50 μl of the sustained-release formulation (29-mer or 20-mer). The mice in the bolus control group received the bolus formulation (29-mer). Treatments were applied by way of a single intramuscular injection to the soleus muscle immediately after the bupivacaine perfusion.
In the process of muscle regeneration, newly generated muscle fibers typically contain central located nuclei. […] Statistical analysis regarding the percentage of centrally nucleated fibers was performed at day 7 after the bupivacaine injection, and the results were summarized in Table 6.

[2] = system: soleus muscle; assay: bupivacaine myonecrosis model, muscle fiber size (minimal Feret's diameter); format: in vivo, Sprague-Dawley rats; conditions: 14 days after injury; for diameters of muscle fibers on average versus blank or bolus control group: in words
Protocol: The muscle fiber size was determined on H&E-stained muscle cross section and quantified using the minimum distance of parallel tangents at opposing particle borders (minimal “Feret's diameter”). Pictures were captured using a Nikon Eclipse 80i light microscope, and the minimal Feret's diameter was measured using the Image-Pro Plus 4.5.1 software (Media Cybernetics). Normalization of the number of fibers in each fiber Feret class of 5 μm was based on the total number of muscle fibers in each picture.
as §1, §2
In the later stage of muscle regeneration, newly generated muscle fibers start to gain size. Muscle specimens were collected at 14 days after injury, and respective fiber diameters were measured in accordance with the procedure set forth in the section of “Materials and Methods.” Results were summarized in FIG. 9.

[3] = system: bone marrow-derived mesenchymal stem cells (BM-MSCs); assay: BM-MSC differentiation into tenocytes, tenomodulin (TNMD) gene expression by RT-PCR; format: cell-based, Sprague-Dawley rats; conditions: 50 nM peptide, 1% FBS-DMEM, 24 or 48 hours, in words
Protocol: Primary rat BM-MSCs were isolated from femur of male Sprague-Dawley rats (300-450 g). Femora were aseptically removed and dissected free of adhering tissues, and then the marrow cavities were flushed by injection of DMEM medium. Collected bone marrow cells were incubated in a 100×15-mm Petri dish in DMEM medium supplemented with 10% FBS, 100 U/ml penicillin, and 100 μg/ml streptomycin for 2 weeks in 5% CO2 at 37° C. The medium was replaced every 2 to 3 days. For passage, near-confluent cells were detached by 0.25% trypsin and then 2×10^5 subcultured cells were seeded in a well of 6-well plate and further cultured in the 10% FBS-DMEM. Before treatment, cells were starved for 12 hours in DMEM supplemented with 1% FBS followed by treatment with 50 nM PEDF-derived peptide (29-mer or 20-mer) in fresh 1% FBS-DMEM for either 24 or 48 hours.
The total RNA was extracted from cells using TRIzol and treated with RNase-free DNase I (Qiagen, Santa Clarita, Calif.) to remove genomic DNA and then purified with an RNA purification kit (Dynabeads). […]
The PCR products were electrophoresed in a 2% agarose gel containing ethidium bromide and visualized by UV illumination. The intensities of the PCR products were quantified densitometrically using a FUJI LAS-3000 system and Multi Gauge Ver. […]

[4] = system: aortic ring explants; assay: rat aortic ring sprouting assay (ex vivo neovessel sprouting); format: cell-based; conditions: aortic rings cultured with PEDF peptide, in words

Sequence	centrally nucleated fibers in regenerating muscle [1]	Centrally nucleated fibers (%) [1] [%]	diameters of muscle fibers on average versus blank or bolus control group [2]	muscle fibers with a minimal Feret's diameter between 15-25 μm ([2]; sustained-release formulation)	tenocyte differentiation of BM-MSCs (TNMD gene expression) [3]	neovessel phenotype by dual immunofluorescence (α-SMA / isolectin B4) [4]
SLGAEQRTESIIHRALYYDL [20-mer, synthetic peptide corresponding to residues 93-112 of human PEDF]	much less centrally nucleated fibers	63.3 ± 7.4	larger	about 56.6%	effective inducer of tenocyte-like cell differentiation	displayed arteriole phenotype with a SMC coating
SLGAEQRTESIIHRALYYDLISSPDIHGT [29-mer, synthetic peptide corresponding to residues 93-121 of human PEDF]	much less centrally nucleated fibers	75.2 ± 7.0	larger		effective inducer of tenocyte-like cell differentiation	displayed arteriole phenotype with a SMC coating
